Measurements reported in patent US20250115598A1 (Anaxis Pharma Pty Ltd, priority 2021, published 2025).

Assays:
[1] = molecular target: human RIPK1 (Homo sapiens (Human), UniProt Q13546); assay: KINOMEscan binding assay, human RIPK1; settings: Table 21
Outline: (§1)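 Compound dilutions (11 points, 3-fold, mostly from 30,000 nM, 1% DMSO final) competed with immobilized ligand for DNA- or phage-tagged protein, and bead-bound protein was measured by qPCR. Kd values came from Hill-equation fits with slope −1 (Levenberg-Marquardt).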

[2] = molecular target: human RIPK3 (Homo sapiens (Human), UniProt Q9Y572); assay: KINOMEscan binding assay, human RIPK3; settings: Table 21
Chain of human RIPK3 (Q9Y572 whole entry): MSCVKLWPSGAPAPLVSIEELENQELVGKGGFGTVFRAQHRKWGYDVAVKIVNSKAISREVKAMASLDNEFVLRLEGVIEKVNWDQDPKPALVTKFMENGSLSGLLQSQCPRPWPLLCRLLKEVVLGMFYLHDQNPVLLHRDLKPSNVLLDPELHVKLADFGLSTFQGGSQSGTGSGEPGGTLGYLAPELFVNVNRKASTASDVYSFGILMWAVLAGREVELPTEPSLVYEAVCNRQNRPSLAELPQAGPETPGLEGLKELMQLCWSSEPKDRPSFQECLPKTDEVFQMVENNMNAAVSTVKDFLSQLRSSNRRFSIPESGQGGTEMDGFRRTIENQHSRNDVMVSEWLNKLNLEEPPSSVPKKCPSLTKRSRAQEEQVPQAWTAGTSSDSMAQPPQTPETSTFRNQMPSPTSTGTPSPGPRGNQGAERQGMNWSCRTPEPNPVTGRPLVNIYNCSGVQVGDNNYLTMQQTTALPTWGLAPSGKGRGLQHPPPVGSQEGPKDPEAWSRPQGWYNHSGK
Outline: as §1

[3] = molecular target: human MLKL (full length) (Homo sapiens (Human), UniProt Q8NB16); assay: KINOMEscan binding assay, human MLKL (full length); settings: KINOMEscan, Table 21; read-out: Human MLKL (full-length) (KD)
Chain of human MLKL (full length) (Q8NB16 whole entry): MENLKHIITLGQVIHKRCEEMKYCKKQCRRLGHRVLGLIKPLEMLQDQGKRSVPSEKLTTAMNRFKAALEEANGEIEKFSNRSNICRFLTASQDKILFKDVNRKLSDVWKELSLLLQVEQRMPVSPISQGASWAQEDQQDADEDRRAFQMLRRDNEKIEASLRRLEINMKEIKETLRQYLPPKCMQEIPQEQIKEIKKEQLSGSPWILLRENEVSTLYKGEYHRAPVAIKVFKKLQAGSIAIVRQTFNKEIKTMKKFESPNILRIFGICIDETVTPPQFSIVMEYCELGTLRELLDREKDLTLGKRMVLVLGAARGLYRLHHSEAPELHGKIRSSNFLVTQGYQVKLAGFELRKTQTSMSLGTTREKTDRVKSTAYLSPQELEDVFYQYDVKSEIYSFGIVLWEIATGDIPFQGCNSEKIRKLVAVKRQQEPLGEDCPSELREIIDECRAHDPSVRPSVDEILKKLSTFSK
Description: Binding affinity of the test compounds for human MLKL (full length), mouse MLKL (full length), human RIPK1 and human RIPK3 was determined using the KINOMEscan™ technology developed by DiscoverX (USA; http://www.discoverx.com). The assay was conducted according to manufacturer instructions.
Kinase assays. For most assays, kinase-tagged T7 phage strains were grown in parallel in 24-well blocks in an E. coli host derived from the BL21 strain. E. coli were grown to log-phase and infected with T7 phage from a frozen stock (multiplicity of infection=0.4) and incubated with shaking at 32° C. until lysis (90-150 minutes). The lysates were centrifuged (6,000×g) and filtered (0.2 μm) to remove cell debris. The remaining kinases were produced in HEK-293 cells and subsequently tagged with DNA for qPCR detection. […] The liganded beads were blocked with excess biotin and washed with blocking buffer (SeaBlock (Pierce), 1% BSA, 0.05% Tween 20, 1 mM DTT) to remove unbound ligand and to reduce non-specific phage binding. […] All reactions were performed in polypropylene 384-well plates in a final volume of 20 μL. […] The kinase concentration in the eluates was measured by qPCR.
An 11-point 3-fold serial dilution of each test compound was prepared in 100% DMSO at 100× final test concentration and subsequently diluted to 1× in the assay (final DMSO concentration=1%). Most Kos were determined using a compound top concentration=30,000 nM.
KD for each test compound was calculated with a standard dose-response curve using the Hill equation (equation (1)): […]
The Hill Slope was set to −1.
Curves were fitted using a non-linear least square fit with the Levenberg-Marquardt algorithm.

Chain of human RIPK1 (Q13546 whole entry): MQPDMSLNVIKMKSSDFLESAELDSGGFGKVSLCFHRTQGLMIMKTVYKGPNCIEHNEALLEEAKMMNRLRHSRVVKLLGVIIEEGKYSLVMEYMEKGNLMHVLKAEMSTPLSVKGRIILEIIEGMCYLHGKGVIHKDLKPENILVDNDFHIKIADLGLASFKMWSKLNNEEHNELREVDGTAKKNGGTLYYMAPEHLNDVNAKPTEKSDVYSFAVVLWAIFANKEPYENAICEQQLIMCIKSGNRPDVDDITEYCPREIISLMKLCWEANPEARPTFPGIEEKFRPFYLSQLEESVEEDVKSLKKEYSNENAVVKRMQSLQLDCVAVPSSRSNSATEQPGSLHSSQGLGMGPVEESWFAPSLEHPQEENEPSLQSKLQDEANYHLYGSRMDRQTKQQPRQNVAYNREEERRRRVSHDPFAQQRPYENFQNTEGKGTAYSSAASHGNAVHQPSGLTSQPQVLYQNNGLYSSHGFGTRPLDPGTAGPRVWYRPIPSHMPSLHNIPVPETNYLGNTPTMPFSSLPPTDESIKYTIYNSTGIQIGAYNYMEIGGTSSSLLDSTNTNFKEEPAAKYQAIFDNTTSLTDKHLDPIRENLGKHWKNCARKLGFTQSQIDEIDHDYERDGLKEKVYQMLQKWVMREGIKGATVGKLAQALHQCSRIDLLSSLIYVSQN

COCC(Oc1cc(-c2nn(C)c3c(-c4cnn(C5CCOCC5)c4)cnc(N)c23)ccc1NS(=O)(=O)C(F)F)c1ccc(F)cc1 (racemic) [Compound 102, N-(4-(4-amino-1-methyl-7-(1-(tetrahydro-2H-pyran-4-yl)-1H-pyrazol-4-yl)-1H-pyrazolo[4,3-c]pyridin-3-yl)-2-(1-(4-fluorophenyl)-2-methoxyethoxy)phenyl)-1,1-difuoromethane-sulfonamide]
Kd [1]: > 10 µM
Kd [2]: > 10 µM
Kd [3]: < 0.001 µM

CCS(=O)(=O)Nc1ccc(-c2coc3c(-c4cnn(C5CCOCC5)c4)cnc(N)c23)cc1OCc1ccc(F)cc1 [Compound 3, N-(4-(4-amino-7-(1-(tetrahydro-2H-pyran-4-yl)-1H-pyrazol-4-yl)furo[3,2-c]pyridin-3-yl)-2-((4-fluorobenzyl)oxy)phenyl)ethanesulfonamide]
Kd [1]: > 10 µM
Kd [2]: > 10 µM
Kd [3]: < 0.001 µM

Nc1ncc(-c2cnn(CCO)c2)c2occ(-c3ccc(NS(=O)(=O)C(F)F)c(OCc4ccc(F)cc4)c3)c12 [Compound 6, N-(4-(4-amino-7-(1-(2-hydroxyethyl)-1H-pyrazol-4-yl)furo[3,2-c]pyridin-3-yl)-2-((4-fluorobenzyl)oxy)phenyl)-1,1-difluoro-methanesulfonamide]
Kd [1]: > 10 µM
Kd [2]: > 10 µM
Kd [3]: < 0.001 µM

C[C@H](Oc1cc(-c2coc3c(-c4cnn(CCO)c4)cnc(N)c23)ccc1NS(=O)(=O)C(F)F)c1ccc(F)cc1 [Compound 9, (S)-N-(4-(4-amino-7-(1-(2-hydroxyethyl)-1H-pyrazol-4-yl)furo[3,2-c]pyridin-3-yl)-2-(1-(4-fluoro-phenyl)eth-oxy)phenyl)-1,1-difluoromethane-sulfonamide]
Kd [1]: > 10 µM
Kd [2]: > 10 µM
Kd [3]: < 0.001 µM

Cn1cc(-c2cnc(N)c3c(-c4ccc(NS(=O)(=O)C(F)F)c(OCc5ccc(F)cc5)c4)nn(C)c23)cn1 [Compound 16, N-(4-(4-amino-1-methyl-7-(1-methyl-1H-pyrazol-4-yl)-1H-pyrazolo[4,3-c]pyridin-3-yl)-2-((4-fluoro-benzyl)oxy)phenyl)-1,1-difluoromethane-sulfonamide]
Kd [1]: > 10 µM
Kd [2]: > 10 µM
Kd [3]: < 0.001 µM

C[C@H](Oc1cc(-c2nn(C)c3ccnc(N)c23)ccc1NS(=O)(=O)C(F)F)c1ccc(F)cc1 [Compound 17, N-(4-{4-amino-1-methyl-1H-pyrazolo[4,3-c]pyridin-3-yl}-2-[(1S)-1-(4-fluorophenyl)ethoxy]phenyl)-1,1-difluoromethanesulfonamide]
Kd [1]: > 10 µM
Kd [2]: > 10 µM
Kd [3]: < 0.001 µM

C[C@H](Oc1cc(-c2nn(C)c3c(-c4ccncc4)cnc(N)c23)ccc1NS(=O)(=O)C(F)F)c1ccc(F)cc1 [Compound 18, (S)-N-(4-(4-amino-1-methyl-7-(pyridin-4-yl)-1H-pyrazolo[4,3-c]pyridin-3-yl)-2-(1-(4-fluorophenyl)ethoxy)phenyl)-1,1-difluoromethanesulfonamide]
Kd [1]: > 10 µM
Kd [2]: > 10 µM
Kd [3]: < 0.001 µM

C[C@H](Oc1cc(-c2nn(C)c3c(C4=CCN(C)CC4)cnc(N)c23)ccc1NS(=O)(=O)C(F)F)c1ccc(F)cc1 [Compound 21, (S)-N-(4-(4-amino-1-methyl-7-(1-methyl-1,2,3,6-tetrahydropyridin-4-yl)-1H-pyrazolo[4,3-c]pyridin-3-yl)-2-(1-(4-fluorophenyl)ethoxy)phenyl)-1,1-difluoromethanesulfonamide]
Kd [1]: > 10 µM
Kd [2]: > 10 µM
Kd [3]: < 0.001 µM

Cc1cc(-c2cnc(N)c3c(-c4ccc(NS(=O)(=O)C(F)F)c(O[C@@H](C)c5ccc(F)cc5)c4)nn(C)c23)ccn1 [Compound 24, (S)-N-(4-(4-amino-1-methyl-7-(2-methylpyridin-4-yl)-1H-pyrazolo[4,3-c]pyridin-3-yl)-2-(1-(4-fluorophenyl)ethoxy)phenyl)-1,1-difluoromethanesulfonamide]
Kd [1]: > 10 µM
Kd [2]: > 10 µM
Kd [3]: < 0.001 µM

C[C@H](Oc1cc(-c2nn(C)c3c(-c4cccnc4)cnc(N)c23)ccc1NS(=O)(=O)C(F)F)c1ccc(F)cc1 [Compound 25, (S)-N-(4-(4-amino-1-methyl-7-(pyridin-3-yl)-1H-pyrazolo[4,3-c]pyridin-3-yl)-2-(1-(4-fluorophenyl)ethoxy)phenyl)-1,1-difluoromethanesulfonamide]
Kd [1]: > 10 µM
Kd [2]: > 10 µM
Kd [3]: < 0.001 µM

Cc1ccc(-c2cnc(N)c3c(-c4ccc(NS(=O)(=O)C(F)F)c(O[C@@H](C)c5ccc(F)cc5)c4)nn(C)c23)cn1 [Compound 26, (S)-N-(4-(4-amino-1-methyl-7-(6-methylpyridin-3-yl)-1H-pyrazolo[4,3-c]pyridin-3-yl)-2-(1-(4-fluorophenyl)ethoxy)phenyl)-1,1-difluoromethanesulfonamide]
Kd [1]: > 10 µM
Kd [2]: > 10 µM
Kd [3]: < 0.001 µM

COc1ccc(-c2cnc(N)c3c(-c4ccc(NS(=O)(=O)C(F)F)c(O[C@@H](C)c5ccc(F)cc5)c4)nn(C)c23)cn1 [Compound 28, (S)-N-(4-(4-amino-7-(6-methoxypyridin-3-yl)-1-methyl-1H-pyrazolo[4,3-c]pyridin-3-yl)-2-(1-(4-fluorophenyl)ethoxy)phenyl)-1,1-difluoromethanesulfonamide]
Kd [1]: > 10 µM
Kd [2]: > 10 µM
Kd [3]: < 0.001 µM

COCCn1cc(-c2cnc(N)c3c(-c4ccc(NS(=O)(=O)C(F)F)c(O[C@@H](C)c5ccc(F)cc5)c4)nn(C)c23)cn1 [Compound 29, (S)-N-(4-(4-amino-7-(1-(2-methoxyethyl)-1H-pyrazol-4-yl)-1-methyl-1H-pyrazolo[4,3-c]pyridin-3-yl)-2-(1-(4-fluorophenyl)ethoxy)phenyl)-1,1-difluoromethanesulfonamide]
Kd [1]: > 10 µM
Kd [2]: > 10 µM
Kd [3]: < 0.001 µM

CC(C)n1cc(-c2cnc(N)c3c(-c4ccc(NS(=O)(=O)C(F)F)c(O[C@@H](C)c5ccc(F)cc5)c4)nn(C)c23)cn1 [Compound 31, (S)-N-(4-(4-amino-7-(1-isopropyl-1H-pyrazol-4-yl)-1-methyl-1H-pyrazolo[4,3-c]pyridin-3-yl)-2-(1-(4-fluorophenyl)ethoxy)phenyl)-1,1-difluoromethanesulfonamide]
Kd [1]: > 10 µM
Kd [2]: > 10 µM
Kd [3]: < 0.001 µM

Cc1c(-c2cnc(N)c3c(-c4ccc(NS(=O)(=O)C(F)F)c(O[C@@H](C)c5ccc(F)cc5)c4)nn(C)c23)cnn1C1CCN(C)C(C)(C)C1 (stereo partly drawn) [Compound 157, N-(4-(4-amino-1-methyl-7-(5-methyl-1-(1,2,2-trimethylpiperidin-4-yl)-1H-pyrazol-4-yl)-1H-pyrazolo[4,3-c]pyridin-3-yl)-2-((S)-1-(4-fluorophenyl)ethoxy)phenyl)-1,1-difluoromethanesulfonamide]
Kd [1]: > 10 µM
Kd [2]: > 10 µM

C[C@H](Oc1cc(-c2nn(C)c3c(-c4ccc5c(c4)CC(=O)N5C)cnc(N)c23)ccc1NS(=O)(=O)C(F)F)c1ccc(F)cc1 [Compound 165, (S)-N-(4-(4-amino-1-methyl-7-(1-methyl-2-oxoindolin-5-yl)-1H-pyrazolo[4,3-c]pyridin-3-yl)-2-(1-(4-fluorophenyl)ethoxy)phenyl)-1,1-difluoromethanesulfonamide]
Kd [1]: > 10 µM
Kd [2]: > 10 µM

C[C@H](Oc1cc(-c2nn(C)c3c(-c4ccc5c(cnn5C)c4)cnc(N)c23)ccc1NS(=O)(=O)C(F)F)c1ccc(F)cc1 [Compound 166, (S)-N-(4-(4-amino-1-methyl-7-(1-methyl-1H-indazol-5-yl)-1H-pyrazolo[4,3-c]pyridin-3-yl)-2-(1-(4-fluorophenyl)ethoxy)phenyl)-1,1-difluoromethanesulfonamide]
Kd [1]: > 10 µM
Kd [2]: > 10 µM

C[C@H](Oc1cc(-c2nn(C)c3c(-c4cnn(C5CCN(CC(F)(F)F)C(C)(C)C5)c4)cnc(N)c23)ccc1NS(=O)(=O)C(F)F)c1ccc(F)cc1 (stereo partly drawn) [Compound 167, N-(4-(4-amino-7-(1-(2,2-dimethyl-1-(2,2,2-trifluoroethyl)piperidin-4-yl)-1H-pyrazol-4-yl)-1-methyl-1H-pyrazolo[4,3-c]pyridin-3-yl)-2-((S)-1-(4-fluorophenyl)ethoxy)phenyl)-1,1-difluoromethanesulfonamide]
Kd [1]: > 10 µM
Kd [2]: > 10 µM

CC1CN(C)CC(C)C1n1cc(-c2cnc(N)c3c(-c4ccc(NS(=O)(=O)C(F)F)c(O[C@@H](C)c5ccc(F)cc5)c4)nn(C)c23)cn1 (stereo partly drawn) [Compound 172, N-(4-(4-amino-1-methyl-7-[1-(1,3,5-trimethylpiperidin-4-yl)-1H-pyrazol-4-yl]-1H-pyrazolo[4,3-c]pyridin-3-yl}-2-[(1S)-1-(4-fluorophenyl)ethoxy]phenyl)-1,1-difluoromethanesulfonamide]
Kd [1]: 0.1 to 10 µM
Kd [2]: > 10 µM
